# Source: US11723589B2 (The General Hospital Corporation, priority 2010, dated 2023)
# Where “and” joins values, the source holds several entries; their conditions need not be identical. Equal entries are not always repeated. Entries after “also recorded” stand apart in the source; their conditions may differ.
# Columns and labels:
# [1] = system: rats; assay: D-MPH versus L-MPH reversal of isoflurane anesthesia, loss of righting reflex (LORR); type: in vivo, rat; conditions: for reversal of isoflurane-induced general anesthesia: intravenous, rat animal model; for rats with restoration of consciousness: intravenous dose of 0.5 mg/kg; for rats with restoration of consciousness / rate of % recovery of consciousness / time to emergence, D-MPH compared with L-MPH: isoflurane anesthesia; for rate of % recovery of consciousness / time to emergence, D-MPH compared with L-MPH: FIG. 7
# Source text: Pure D-MPH (Focalin) is currently available in oral form for Attention Deficit Hyperactivity Disorder (ADHD), but it is not available for intravenous use.
# [2] = system: Male Sprague-Dawley rats; assay: Hemodynamic recordings (mean arterial blood pressure, heart rate) during isoflurane general anesthesia; type: in vivo, rat; conditions: individual animals, isoflurane 1.5%
# Description: (§1) Arterial Blood Gas and Hemodynamic Recordings. Rats with femoral artery catheters (Charles River Laboratories, Wilmington, Mass.) were placed in the anesthetizing chamber after lateral tail vein IV catheter placement. The isoflurane dose was kept constant at 1.5%. Mean arterial blood pressure and heart rate were measured using a pressure transducer (TruWave, Edwards Life Sciences, Irvine, Calif.) interfaced with a custom-built amplifier (AD620 operational amplifier, Jameco Electronics, Belmont, Calif.). […] Samples were promptly analyzed using CG4+ cartridges in a Vetscan iStat 1 (Abaxis, Union City, Calif.) blood gas analyzer.
# [3] = system: Male Sprague-Dawley rats; assay: Time to emergence after a standardized isoflurane general anesthetic; type: in vivo, rat
# Source text: Animal Care and Use. Animal studies were approved by the Subcommittee on Research Animal Care, Massachusetts General Hospital, Boston, Mass. Male Sprague-Dawley rats (Charles River Laboratories, Wilmington, Mass.) weighing 351-565 grams were used. […] Separate groups of animals were used for the electroencephalogram (4 rats), plethysmography (4 rats), and blood gas studies (6 rats). In animals that underwent multiple experiments, each animal was provided with at least 3 days of rest between experiments. Animals were kept on a standard day-night cycle (lights on at 7 AM, and off at 7 PM), and all experiments were performed during the day.
# Preparation and Delivery of Drugs. […] Droperidol was diluted in normal saline to a final volume of 0.5 ml prior to administration. […]
# [4] = system: Male Sprague-Dawley rats; assay: Return of righting during continuous isoflurane general anesthesia; type: in vivo, rat
# Source text: Anesthetizing Protocol. Rats were anesthetized in an induction chamber with 2-3% isoflurane in oxygen prior to placement of a lateral tail vein intravenous catheter (24 gauge, 19 mm). A rectal temperature probe was inserted and the animal was placed in a cylindrical acrylic anesthetizing chamber. The chamber was custom-built and equipped with ports for anesthetic gas delivery, sampling, and scavenging, as well as intravenous drug administration. A heating pad was placed under the chamber to keep the animal warm, and the body temperature was kept between 36.5° C. and 37.4° C.
# The rat was positioned supine in the anesthetizing chamber and the inhaled concentration of isoflurane was initially fixed at 2.0% for 20 minutes, then reduced to 0.8% over 15-20 minutes, and then maintained at 0.8% for 40 minutes. If the rat made any purposeful movement, the isoflurane concentration was increased by 0.1% and maintained for another 40 minutes. This process was repeated until the final dose of isoflurane sufficient to maintain loss of righting reflex was established, and this dose was administered throughout the remainder of the experiment. This protocol was based on previously published methods described by Alkire et al.^4,11 After the final 40-minute equilibration period, normal saline (2 ml) was administered and the rectal temperature probe was removed. Five minutes later, methylphenidate was administered.
# Prism 4.03 (Graphpad Software, San Diego, Calif.) and Matlab (Mathworks, Natick, Mass.) were used for statistical analysis and where possible, results are reported in terms of 95% confidence intervals based on z-tests, t-tests or Mann-Whitney tests. […] For this computation the inventors assumed a binomial model as the sampling density or likelihood function for the propensity of animals in a given group to have return of the righting response. The inventors took as the prior density for each group the uniform density on the interval (0, 1) because it is uninformative. Because of the conjugacy between the prior and the likelihood the posterior density for each group is a beta density.^17 The posterior densities for the differences in the proportion of animals that had return of righting were then computed by using standard Matlab simulation procedures. Instead of p-values for the Bayesian analyses the inventors computed the posterior probability that the propensity to right was greater in on group compared to the other.
# [5] = system: Male Sprague-Dawley rats; assay: Electroencephalogram recording and spectral analysis during continuous isoflurane; type: in vivo, rat; conditions: isoflurane 1.0%
# Description: Electroencephalogram electrode placement, recording, and spectral analysis. Extradural electroencephalogram electrodes were surgically implanted at least 7 days prior to recording. General anesthesia was induced with xylazine (5-10 mg/kg IP) and ketamine (50-100 mg/kg IP), and supplemented with isoflurane (1-2%). A microdrill was used to make four holes at the following stereotactic coordinates: A0L0, A6L3, A6L-3, and A10L2 relative to the lambda.^12 Polytetrafluoroethylene coated, 200 μm diameter stainless steel electrode wires (A-M Systems, Sequim, Wash.) were inserted and secured with small stainless steel screws, and permanently fixed with dental acrylic cement. Carprofen (5 mg/kg SC) was administered for analgesia on the day of surgery, as well as on post-operative days 1, and 2. The potential difference between electrodes A0L0 and A6L3, or between electrodes A0L0 and A6L-3 (whichever gave less motion artifact), was referenced to A10L2 and recorded using a QP511 Quad AC Amplifier System (Grass Instruments, West Warwick, R.I.) and a USB-6009 14-bit data acquisition board (National Instruments, Austin, Tex.). Data was filtered between 0.3-100 Hz. No line filter was used. The sampling rate was 512 Hz. After baseline recordings were taken for 10 minutes while awake, rats were anesthetized with isoflurane and placed in the anesthetizing chamber. […] Therefore the inventors performed the electroencephalogram experiments in the prone position with the isoflurane dose fixed at 1.0%. These modifications allowed us to minimize electroencephalogram motion artifacts without restraining the animals. After a minimum isoflurane exposure of 40 minutes, normal saline was administered and the temperature probe was removed. Five minutes later, methylphenidate was administered. Spectral analysis was performed using Matlab 7.11 (Mathworks, Natick, Mass.) and the Chronux software (Cold Spring Harbor, N.Y.). 13 Spectrograms were calculated using sliding windows of 2 sec duration stepped through 0.05 sec. For each window, multitaper spectrum estimation was performed using 5 tapers. […]
# [6] = system: rats; assay: Restoration of righting and EEG during continuous propofol anesthesia; type: in vivo, rat; conditions: MPH 5 mg/kg IV, continuous propofol infusion
# Description: For the second experiment, 2 IV catheters were placed and a continuous propofol infusion was started in rats with pre-implanted EEG electrodes. After establishing the minimum plasma concentration of propofol required to maintain loss of righting, the second IV catheter was flushed with NS, and 5 minutes later MPH (5 mg/kg) was administered.
# [7] = system: rats; assay: Time to emergence after a single dose of propofol; type: in vivo, rat; conditions: propofol 8 mg/kg IV, MPH 5 mg/kg IV 45 sec later; mean±SE; n=6
# Description: For the first experiment, a lateral tail vein IV catheter was placed in rats under isoflurane anesthesia. […] Time to emergence was defined as the time until restoration of righting occurred. Statistical analysis was performed using the Mann-Whitney test.
# [8] = system: Male Sprague-Dawley rats; assay: Arterial blood gas analysis during isoflurane general anesthesia; type: in vivo, rat
# Description: as §1
# To provide a conservative check on the assessments made by the 95% confidence intervals and the parametric tests and non-parametric tests were also used to assess statistical significance. The Mann-Whitney test was used to test the hypothesis that methylphenidate hastens time to emergence from isoflurane general anesthesia, and to test the dose-dependence of methylphenidate on time to righting during continuous isoflurane general anesthesia. A paired t-test was used to test the hypothesis that methylphenidate produces a respiratory alkalosis during isoflurane general anesthesia. The inventors used the two-sided Kolmogorov-Smirnov test with a Bonferonni correction to compare spectra in animals before and after receiving methylphenidate. The inventors considered a result to be statistically significant based on the 95% confidence intervals comparing two groups if zero was not in the interval, based on hypothesis tests if the p-values were less than 0.05 or in the case of the Bayesian analyses, if the relevant posterior probability was greater than 0.95.
# [9] = target: norepinephrine transporter (Homo sapiens, UniProt P23975); conditions: read-out: Ki, norepinephrine transporter; cited from earlier work
# norepinephrine transporter, sequence (P23975 whole entry): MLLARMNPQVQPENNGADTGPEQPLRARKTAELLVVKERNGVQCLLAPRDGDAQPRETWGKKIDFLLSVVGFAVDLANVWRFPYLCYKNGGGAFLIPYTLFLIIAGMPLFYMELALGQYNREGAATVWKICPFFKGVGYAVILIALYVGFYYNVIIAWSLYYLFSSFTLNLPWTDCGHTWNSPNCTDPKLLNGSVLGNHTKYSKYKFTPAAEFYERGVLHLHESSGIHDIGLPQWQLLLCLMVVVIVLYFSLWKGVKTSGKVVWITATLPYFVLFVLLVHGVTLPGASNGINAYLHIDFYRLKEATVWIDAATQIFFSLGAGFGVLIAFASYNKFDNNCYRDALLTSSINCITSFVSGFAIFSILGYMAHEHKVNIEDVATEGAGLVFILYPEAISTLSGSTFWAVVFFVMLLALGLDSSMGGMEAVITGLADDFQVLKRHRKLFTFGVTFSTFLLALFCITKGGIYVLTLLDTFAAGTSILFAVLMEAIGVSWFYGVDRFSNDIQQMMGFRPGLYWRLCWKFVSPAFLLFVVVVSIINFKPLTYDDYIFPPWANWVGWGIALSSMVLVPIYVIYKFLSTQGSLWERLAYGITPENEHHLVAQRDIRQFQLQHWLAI
# [10] = system: Male Sprague-Dawley rats; assay: Plethysmography during isoflurane general anesthesia; conditions: for Change in mean RR: after vs before methylphenidate 5 mg/kg IV
# Source text: Plethysmography. Rats were placed in a custom built plethysmography chamber and the isoflurane concentration in the chamber was maintained at 1.5%. […] A differential pressure transducer and demodulator (Models CD15 and MP45-14-871; Validyne Engineering, Northridge, Calif.) were used to convert the chamber pressure to an analog signal. The signal was high pass filtered at 15 sec, acquired at 100 Hz, and analyzed in four second epochs using a USB-6009 data acquisition board (National Instruments, Austin, Tex.) and LabView Software (version 8.5 for Macintosh). Chamber carbon dioxide levels were maintained at or less than 0.5% in the open flow configuration. A heating pad was used to warm the rat from beneath. Chamber air temperature and relative humidity were measured with a thermometer-hygrometer (Fisher Scientific, Pittsburgh, Pa.) and used to estimate tidal volumes during intermittent chamber closure using methods described by Drorbaugh et al.^16
# [11] = children treated with racemic methylphenidate; cited from earlier work
# [12] = system: rats; conditions: 3 mg/kg of droperidol; cited from earlier work
# [13] = system: mice; conditions: cited from earlier work
# [14] = system: mice; conditions: uninstrumented mice, rotating anesthetizing chamber; cited from earlier work
# [15] = after vs before methylphenidate 5 mg/kg IV, listed as Methylphenidate
# [16] = arterial blood 15 minutes after methylphenidate, isoflurane 1.5%, n = 6
# [17] = individual animals pretreated with droperidol (0.5 mg/kg IV), isoflurane 1.5%
# [18] = individual animals pretreated with normal saline, isoflurane 1.5%
structure (smiles),measurement,setting,value
COC(=O)[C@H](c1ccccc1)[C@H]1CCCCN1 (racemic) [methylphenidate],reversal of isoflurane-induced general anesthesia,[1],rapidly reversed isoflurane-induced general anesthesia
same,Change in HR (mean),[2]; after vs before methylphenidate 5 mg/kg IV,6 beats per minute and 15 beats per minute
same,Change in HR (mean),[2]; [15],−14.2 beats per minute and −7.2 beats per minute and +13.9 beats per minute and +0.72 beats per minute and +0.5 beats per minute and −2.6 beats per minute
same,Change in MAP (mean),[2]; [15],+20.5 mmHg and +8.3 mmHg and +3.2 mmHg and −1.4 mmHg and +0.5 mmHg and +7.4 mmHg
same,HR after 5 mg/kg IV Methylphenidate (mean),[2],386.8 beats per minute and 383.3 beats per minute and 365.5 beats per minute and 360.0 beats per minute and 358.6 beats per minute
same,MAP after 5 mg/kg IV Methylphenidate (mean),[2],117.1 mmHg and 90.9 mmHg and 91.3 mmHg and 85.2 mmHg and 100.7 mmHg and 90.8 mmHg
same,median time to emergence (termination of isoflurane to return of righting),"[3]; methylphenidate 5 mg/kg IV five minutes before end of 45 min isoflurane 1.5%, n=12",91 s
same,median difference in time to emergence versus normal saline,"[3]; methylphenidate 5 mg/kg IV, isoflurane 1.5%",200 s
same,median time to righting after methylphenidate,"[4]; 0.5 mg/kg IV, continuous inhalation of isoflurane",348 s
same,median time to righting after methylphenidate,"[4]; 5 mg/kg IV, continuous inhalation of isoflurane",181 s
same,median difference in time to righting between 0.5 and 5 mg/kg,[4]; continuous inhalation of isoflurane,173 s
same,return of righting after droperidol pretreatment,"[4]; droperidol 0.5 mg/kg IV five minutes before methylphenidate 5 mg/kg IV, continuous isoflurane, n=6",None of these animals had return of righting; also recorded: did not induce return of righting in any of the six animals
same,signs of arousal,"[4]; methylphenidate 0.05 mg/kg IV, continuous isoflurane, six rats",no signs of arousal
same,return of righting (rats),"[4]; methylphenidate 0.5 mg/kg IV, continuous isoflurane",11 of 12
same,return of righting (rats),"[4]; methylphenidate 5 mg/kg IV after normal saline, continuous isoflurane",11 of 12
same,time to purposeful movements,"[4]; methylphenidate 5 mg/kg, all 12 rats, continuous isoflurane",≤ 30 s
same,EEG changes after methylphenidate with droperidol pretreatment,[5]; droperidol 0.5 mg/kg IV five minutes before methylphenidate 5 mg/kg IV,did not induce electroencephalogram changes consistent with arousal; also recorded: failed to induce these electroencephalogram changes; also recorded: the shift in peak power from delta to theta was absent
same,persistence of the active EEG pattern,[5]; methylphenidate 5 mg/kg IV,more than 15 minutes
same,rats with signs of arousal and restoration of righting within 4 min,[6],5/6
same,time to restoration of righting in the rat with delayed arousal response,[6]; one rat,25 min
same,time to emergence (restoration of righting) after a single dose of propofol,[7],433 ± 24 s
same,P2CO2 after 5 mg/kg IV Methylphenidate (mean),[8]; [16],35 mmHg
same,P2O2 after 5 mg/kg IV Methylphenidate (mean),[8]; [16],241 mmHg
same,pH after 5 mg/kg IV Methylphenidate (mean),[8]; [16],7.51
same,calculated increase in alveolar ventilation (VA),"[8]; from paCO2 pre/post methylphenidate, assuming no change in baseline metabolism",24±6%
same,Ki,[9],150 nM
same,Change in mean RR,[10]; [17],+4.4 breaths per minute and +2.2 breaths per minute and +3.6 breaths per minute and +4.9 breaths per minute
same,Change in mean RR,[10]; [18],+29.2 breaths per minute and +9.8 breaths per minute and +50.36 breaths per minute and +18.9 breaths per minute
same,RR after 5 mg/kg IV Methylphenidate (mean),[10]; [17],86.3 breaths per minute and 78.0 breaths per minute and 84.1 breaths per minute and 75.5 breaths per minute
same,RR after 5 mg/kg IV Methylphenidate (mean),[10]; [18],154 breaths per minute and 112.6 breaths per minute and 94.2 breaths per minute and 153.8 breaths per minute and 116.7 breaths per minute
same,changes in tidal volume,"[10]; methylphenidate 5 mg/kg IV after droperidol 0.5 mg/kg IV, four rats, one increase, three decreases",4-17%
same,changes in tidal volume,"[10]; methylphenidate 5 mg/kg IV after normal saline, isoflurane 1.5%",the changes were small and inconsistent
same,changes in tidal volume,"[10]; methylphenidate 5 mg/kg IV after normal saline, isoflurane 1.5%, listed as Methylphenidate",tidal volume remained essentially unchanged
"COC(=O)C(c1ccccc1)C1CCCCN1 [D-MPH, D-threo-methylphenidate]",rats with restoration of consciousness,[1],83%
same,reversal of isoflurane-induced general anesthesia,[1],rapidly reversed isoflurane-induced general anesthesia
same,"rate of % recovery of consciousness / time to emergence, D-MPH compared with L-MPH",[1],at a quicker rate than L-MPH
same,"rate of % recovery of consciousness / time to emergence, D-MPH compared with L-MPH",[1]; listed as D-MGH,faster
same,increase in plasma levels,[11],5 fold
"COC(=O)[C@@H](c1ccccc1)[C@@H]1CCCCN1 [L-MPH, L-threo-methylphenidate]",rats with restoration of consciousness,[1],33%
same,reversal of isoflurane-induced general anesthesia,[1],rapidly reversed isoflurane-induced general anesthesia
O=C(CCCN1CC=C(n2c(=O)[nH]c3ccccc32)CC1)c1ccc(F)cc1 [droperidol],effect on isoflurane potency,[12],no effect on isoflurane potency
same,purposeful movement in response to droperidol,"[4]; droperidol 0.5 mg/kg IV, continuous isoflurane, n=6",None of the animals exhibited purposeful movement
same,EEG pattern change after droperidol,[5]; droperidol 0.5 mg/kg IV,no appreciable change
same,EC50 for loss of righting,[13],40 mg/kg
FC(F)OC(Cl)C(F)(F)F (stereo not shown) [isoflurane],dose for loss of righting,[14],0.81%
same,dose of isoflurane sufficient to maintain loss of righting,"[4]; inhaled, rats, mean±SD",0.9%±0.1% and 0.9%
